Test results: PMC5218480 (PLoS ONE, 2017)

Tested on: MV-4-11 cells
Experiment: Gene expression microarray analysis (Affymetrix PrimeView) and GSEA
Assay type: cell-based, human
Parameters: RFU PODN (11730768_x_at) / Fold change /veh PODN (11730768_x_at) / RFU LINC00158 (11744669_a_at) / Fold change /veh LINC00158 (11744669_a_at) / RFU DUSP10 (11751237_a_at) / Fold change /veh DUSP10 (11751237_a_at) / RFU ID3 (11757404_x_at) / Fold change /veh ID3 (11757404_x_at) / RFU PLEKHG5 (11737974_s_at) / Fold change /veh PLEKHG5 (11737974_s_at) / RFU LRRC4B (11730491_at) / Fold change /veh LRRC4B (11730491_at) / RFU GIMAP4 (11747438_a_at) / Fold change /veh GIMAP4 (11747438_a_at) / RFU KRT8 (11758183_x_at) / Fold change /veh KRT8 (11758183_x_at) / RFU CNN1 (11734310_a_at) / Fold change /veh CNN1 (11734310_a_at) / RFU VPS37D (11726825_at) / Fold change /veh VPS37D (11726825_at) / RFU C10orf10 (11716522_x_at) / Fold change /veh C10orf10 (11716522_x_at) / RFU KIR2DL2 /// KIR2DL4 /// KIR2DL5A /// KIR2DL5B /// KIR2DS1 /// KIR2DS2 /// KIR2DS3 /// KIR2DS4 /// KIR3DL3 /// KIR3DL3 /// KIR3DS1 (11738374_at) / Fold change /veh KIR2DL2 /// KIR2DL4 /// KIR2DL5A /// KIR2DL5B /// KIR2DS1 /// KIR2DS2 /// KIR2DS3 /// KIR2DS4 /// KIR3DL3 /// KIR3DL3 /// KIR3DS1 (11738374_at) / RFU C1QL1 (11718748_at) / Fold change /veh C1QL1 (11718748_at) / RFU TMPRSS4 (11747572_a_at) / Fold change /veh TMPRSS4 (11747572_a_at) / RFU HAMP (11756126_x_at) / Fold change /veh HAMP (11756126_x_at) / RFU RNFT2 (11725882_a_at) / Fold change /veh RNFT2 (11725882_a_at) / RFU NR4A2 (11747474_a_at) / Fold change /veh NR4A2 (11747474_a_at) / RFU ABCC12 (11746883_a_at) / Fold change /veh ABCC12 (11746883_a_at) / RFU TMEM136 (11760407_x_at) / Fold change /veh TMEM136 (11760407_x_at) / RFU CLDN22 /// WWC2 (11732394_at) / Fold change /veh CLDN22 /// WWC2 (11732394_at) / RFU HLA-DPB1 (11760878_x_at) / Fold change /veh HLA-DPB1 (11760878_x_at) / RFU SPINT1 (11716480_a_at) / Fold change /veh SPINT1 (11716480_a_at) / RFU GAP43 (11754022_s_at) / Fold change /veh GAP43 (11754022_s_at) / RFU A4GNT (11735810_at) / Fold change /veh A4GNT (11735810_at) / RFU PRB3 (11715151_x_at) / Fold change /veh PRB3 (11715151_x_at) / RFU TUBB4B (11761932_at) / Fold change /veh TUBB4B (11761932_at) / RFU CAPN14 (11732068_a_at) / Fold change /veh CAPN14 (11732068_a_at) / RFU TMCC2 (11721928_a_at) / Fold change /veh TMCC2 (11721928_a_at) / RFU IRGQ (11745062_a_at) / Fold change /veh IRGQ (11745062_a_at) / RFU FAM174B (11720279_a_at) / Fold change /veh FAM174B (11720279_a_at) / RFU TMPRSS4 (11748680_a_at) / Fold change /veh TMPRSS4 (11748680_a_at) / RFU FAM212B (11763350_a_at) / Fold change /veh FAM212B (11763350_a_at) / RFU PLEKHG5 (11743358_a_at) / Fold change /veh PLEKHG5 (11743358_a_at) / RFU ZSCAN30 (11745921_a_at) / Fold change /veh ZSCAN30 (11745921_a_at) / RFU CMKLR1 (11741424_a_at) / Fold change /veh CMKLR1 (11741424_a_at) / RFU LOC101060620 /// MAPK8IP1 (11723275_at) / Fold change /veh LOC101060620 /// MAPK8IP1 (11723275_at) / RFU SPTSSB (11747773_x_at) / Fold change /veh SPTSSB (11747773_x_at) / RFU PRSS12 (11739890_at) / Fold change /veh PRSS12 (11739890_at) / RFU BIN1 (11741810_x_at) / Fold change /veh BIN1 (11741810_x_at) / RFU WNT11 (11732464_a_at) / Fold change /veh WNT11 (11732464_a_at) / RFU C10orf10 (11716521_a_at) / Fold change /veh C10orf10 (11716521_a_at) / RFU C5orf56 (11738089_at) / Fold change /veh C5orf56 (11738089_at) / RFU CYB561 (11721691_x_at) / Fold change /veh CYB561 (11721691_x_at) / RFU ANKRD19P (11752326_a_at) / Fold change /veh ANKRD19P (11752326_a_at) / RFU OR2T12 /// OR2T33 /// OR2T8 (11738714_s_at) / Fold change /veh OR2T12 /// OR2T33 /// OR2T8 (11738714_s_at) / RFU VCAN (11748164_a_at) / Fold change /veh VCAN (11748164_a_at) / RFU JSRP1 (11732532_at) / Fold change /veh JSRP1 (11732532_at) / RFU KRTAP10-11 (11738290_x_at) / Fold change /veh KRTAP10-11 (11738290_x_at) / RFU MYO3A (11730013_a_at) / Fold change /veh MYO3A (11730013_a_at) / RFU EBF3 (11725865_a_at) / Fold change /veh EBF3 (11725865_a_at) / RFU CAMK2N1 (11719241_x_at) / Fold change /veh CAMK2N1 (11719241_x_at) / RFU C5orf56 (11738088_a_at) / Fold change /veh C5orf56 (11738088_a_at) / RFU OLFML3 (11715873_a_at) / Fold change /veh OLFML3 (11715873_a_at) / RFU LOC100653217 /// NTM (11731650_a_at) / Fold change /veh LOC100653217 /// NTM (11731650_a_at) / RFU MAPK11 (11762145_a_at) / Fold change /veh MAPK11 (11762145_a_at) / RFU FIZ1 (11724087_x_at) / Fold change /veh FIZ1 (11724087_x_at) / RFU OASL (11726364_x_at) / Fold change /veh OASL (11726364_x_at) / RFU SOX15 (11748057_x_at) / Fold change /veh SOX15 (11748057_x_at) / RFU CD79A (11719716_a_at) / Fold change /veh CD79A (11719716_a_at) / RFU HIST1H1D (11736915_at) / Fold change /veh HIST1H1D (11736915_at) / RFU CASKIN2 (11723855_a_at) / Fold change /veh CASKIN2 (11723855_a_at) / RFU LOC730098 (11760151_x_at) / Fold change /veh LOC730098 (11760151_x_at) / RFU OR4N2 (11742367_at) / Fold change /veh OR4N2 (11742367_at) / RFU PRRT2 (11749266_a_at) / Fold change /veh PRRT2 (11749266_a_at) / RFU SNX32 (11753110_a_at) / Fold change /veh SNX32 (11753110_a_at) / RFU CDHR5 (11726645_a_at) / Fold change /veh CDHR5 (11726645_a_at) / RFU RCAN1 (11760418_a_at) / Fold change /veh RCAN1 (11760418_a_at) / RFU FAM167A (11723789_a_at) / Fold change /veh FAM167A (11723789_a_at) / RFU FAM26E (11764081_at) / Fold change /veh FAM26E (11764081_at) / RFU ISYNA1 (11749810_s_at) / Fold change /veh ISYNA1 (11749810_s_at) / RFU ACY1 (11761880_at) / Fold change /veh ACY1 (11761880_at) / RFU 11764098_at / Fold change /veh 11764098_at / RFU SAMD14 (11745864_x_at) / Fold change /veh SAMD14 (11745864_x_at) / RFU NPB (11741838_a_at) / Fold change /veh NPB (11741838_a_at) / RFU TMPRSS6 (11731388_a_at) / Fold change /veh TMPRSS6 (11731388_a_at) / RFU KRTAP10-2 (11738614_at) / Fold change /veh KRTAP10-2 (11738614_at) / RFU ARHGAP8 /// PRR5-ARHGAP8 (11727945_x_at) / Fold change /veh ARHGAP8 /// PRR5-ARHGAP8 (11727945_x_at) / RFU KRTAP5-7 /// NADSYN1 (11734609_at) / Fold change /veh KRTAP5-7 /// NADSYN1 (11734609_at) / RFU RASL12 (11751679_a_at) / Fold change /veh RASL12 (11751679_a_at) / RFU CDKN2B (11736163_a_at) / Fold change /veh CDKN2B (11736163_a_at) / RFU PRF1 (11729649_at) / Fold change /veh PRF1 (11729649_at) / RFU, ZNF638 /// ZNF638-IT1 / Fold change vs veh, ZNF638 /// ZNF638-IT1 / RFU, PANK3 / Fold change vs veh, PANK3 / RFU, SH3YL1 / Fold change vs veh, SH3YL1 / RFU, ZEB2 / Fold change vs veh, ZEB2 / RFU, NRIP1 / Fold change vs veh, NRIP1 / RFU, PTTG1IP / Fold change vs veh, PTTG1IP / RFU, CAPN2 / Fold change vs veh, CAPN2 / RFU, MED14 / Fold change vs veh, MED14 / RFU, SNORA58 / Fold change vs veh, SNORA58 / RFU, C1orf63 / Fold change vs veh, C1orf63 / RFU, LRRFIP1 / Fold change vs veh, LRRFIP1 / RFU, NDUFAF7 / Fold change vs veh, NDUFAF7 / RFU, SLC12A2 / Fold change vs veh, SLC12A2 / RFU, IBTK / Fold change vs veh, IBTK / RFU, ESF1 / Fold change vs veh, ESF1 / Fold change vs veh, TMEM50B / RFU, TAOK1 / Fold change vs veh, TAOK1 / RFU, ACBD3 / Fold change vs veh, ACBD3 / RFU, TMA16 / Fold change vs veh, TMA16 / RFU, RWDD3 / Fold change vs veh, RWDD3 / RFU, BCAT1 / Fold change vs veh, BCAT1 / RFU, EDEM3 / Fold change vs veh, EDEM3 / RFU, TMEM33 / Fold change vs veh, TMEM33 / RFU, WDR75 / Fold change vs veh, WDR75 / RFU, AHCTF1 / Fold change vs veh, AHCTF1 / RFU, TFRC / Fold change vs veh, TFRC / RFU, ZDHHC17 / Fold change vs veh, ZDHHC17 / RFU, NOM1 / Fold change vs veh, NOM1 / RFU, ARL8B / Fold change vs veh, ARL8B / RFU, ZBTB11 / Fold change vs veh, ZBTB11 / RFU, TAMM41 / Fold change vs veh, TAMM41 / RFU, KIAA1704 /// LOC100996395 / Fold change vs veh, KIAA1704 /// LOC100996395 / RFU, ING1 / Fold change vs veh, ING1 / RFU, TRMT61B / Fold change vs veh, TRMT61B / RFU, FUBP3 / Fold change vs veh, FUBP3 / RFU, TP53 / Fold change vs veh, TP53 / RFU, TNKS2 / Fold change vs veh, TNKS2 / RFU, ZFP14 / Fold change vs veh, ZFP14 / RFU, ACTR2 / Fold change vs veh, ACTR2 / RFU, PPP3R1 / Fold change vs veh, PPP3R1 / RFU, PIK3R1 / Fold change vs veh, PIK3R1 / RFU, HNRNPA1 / Fold change vs veh, HNRNPA1 / RFU, RNF170 / Fold change vs veh, RNF170 / RFU, ZNF28 / Fold change vs veh, ZNF28 / RFU, RNGTT / Fold change vs veh, RNGTT / RFU, OGT / Fold change vs veh, OGT / RFU, BRD1 / Fold change vs veh, BRD1 / RFU, MARS / Fold change vs veh, MARS / RFU, ZNF655 / Fold change vs veh, ZNF655 / RFU, FAHD1 / Fold change vs veh, FAHD1 / RFU, BDP1 / Fold change vs veh, BDP1 / RFU, LRRCC1 / Fold change vs veh, LRRCC1 / RFU, ARID1A / Fold change vs veh, ARID1A / RFU, ZNF146 / Fold change vs veh, ZNF146 / RFU, ZNF330 / Fold change vs veh, ZNF330 / RFU, GPN3 / Fold change vs veh, GPN3 / RFU, C9orf123 / Fold change vs veh, C9orf123 / RFU, N4BP2L2 / Fold change vs veh, N4BP2L2 / RFU, ARFIP1 / Fold change vs veh, ARFIP1 / RFU, FAM179B / Fold change vs veh, FAM179B / RFU, BCL10 / Fold change vs veh, BCL10 / RFU, UHRF1BP1L / Fold change vs veh, UHRF1BP1L / RFU, BET1 / Fold change vs veh, BET1 / RFU, CNOT2 / Fold change vs veh, CNOT2 / RFU, ZNF268 / Fold change vs veh, ZNF268 / Fold change vs veh, ZNF507 / RFU, DGCR2 / Fold change vs veh, DGCR2 / RFU, WDSUB1 / Fold change vs veh, WDSUB1 / Fold change vs veh, HSP90B1 /// MIR3652 / RFU, ADSS / Fold change vs veh, ADSS / RFU, GK / Fold change vs veh, GK / RFU, ZNF148 / Fold change vs veh, ZNF148 / RFU, TAF9 / Fold change vs veh, TAF9 / RFU, SLC1A5 / Fold change vs veh, SLC1A5 / RFU, SLMO2 / Fold change vs veh, SLMO2 / RFU, ABCC4 / Fold change vs veh, ABCC4 / RFU, LOC101060439 /// RAP1B / Fold change vs veh, LOC101060439 /// RAP1B / RFU, RFX7 / Fold change vs veh, RFX7 / RFU, GTPBP10 / Fold change vs veh, GTPBP10 / RFU, CNEP1R1 / Fold change vs veh, CNEP1R1 / RFU, BIVM-ERCC5 /// ERCC5 / Fold change vs veh, BIVM-ERCC5 /// ERCC5 / RFU, ILF3 / Fold change vs veh, ILF3 / RFU 11762660_at / Fold change /veh 11762660_at / RFU VCAN (11757783_s_at) / Fold change /veh VCAN (11757783_s_at) / RFU DDX43 (11728927_at) / Fold change /veh DDX43 (11728927_at) / RFU KRT8 (11758188_x_at) / Fold change /veh KRT8 (11758188_x_at) / RFU NKD1 (11759106_at) / Fold change /veh NKD1 (11759106_at) / RFU SRD5A1 (11742802_a_at) / Fold change /veh SRD5A1 (11742802_a_at) / RFU TPSAB1 /// TPSB2 (11721975_s_at) / Fold change /veh TPSAB1 /// TPSB2 (11721975_s_at) / RFU GSTM3 (11746129_a_at) / Fold change /veh GSTM3 (11746129_a_at) / RFU IL23R (11737362_x_at) / Fold change /veh IL23R (11737362_x_at) / RFU TMEM51 (11727254_a_at) / Fold change /veh TMEM51 (11727254_a_at) / RFU PIWIL2 (11732686_x_at) / Fold change /veh PIWIL2 (11732686_x_at) / RFU ORM1 (11744905_x_at) / Fold change /veh ORM1 (11744905_x_at) / RFU CCDC152 (11743942_at) / Fold change /veh CCDC152 (11743942_at) / RFU ECM1 (11717891_a_at) / Fold change /veh ECM1 (11717891_a_at) / RFU IL23R (11748794_a_at) / Fold change /veh IL23R (11748794_a_at) / RFU TNFAIP8L3 (11732012_x_at) / Fold change /veh TNFAIP8L3 (11732012_x_at) / RFU MBOAT4 (11741988_at) / Fold change /veh MBOAT4 (11741988_at) / RFU 11764193_at / Fold change /veh 11764193_at / RFU TMEM53 (11763286_at) / Fold change /veh TMEM53 (11763286_at) / RFU MAGEB2 (11727129_at) / Fold change /veh MAGEB2 (11727129_at) / RFU TMEM200A (11744735_a_at) / Fold change /veh TMEM200A (11744735_a_at) / RFU CCDC152 (11751479_a_at) / Fold change /veh CCDC152 (11751479_a_at) / RFU FAM211A (11726209_a_at) / Fold change /veh FAM211A (11726209_a_at) / RFU RGS16 (11746705_a_at) / Fold change /veh RGS16 (11746705_a_at) / RFU VCAN (11755009_s_at) / Fold change /veh VCAN (11755009_s_at) / RFU RHOB (11743442_s_at) / Fold change /veh RHOB (11743442_s_at) / RFU RGS16 (11720943_a_at) / Fold change /veh RGS16 (11720943_a_at) / RFU RGS16 (11720944_at) / Fold change /veh RGS16 (11720944_at) / RFU, VPS4B / Fold change vs veh, VPS4B / RFU, CREB1 / Fold change vs veh, CREB1 / RFU, DNAJC13 / Fold change vs veh, DNAJC13 / RFU, GNAQ / Fold change vs veh, GNAQ / RFU, CDK5R1 / Fold change vs veh, CDK5R1 / RFU, ZRANB3 / Fold change vs veh, ZRANB3 / RFU, CUL4A / Fold change vs veh, CUL4A / RFU, CCNY / Fold change vs veh, CCNY / RFU, UFL1 / Fold change vs veh, UFL1 / RFU, COG3 / Fold change vs veh, COG3 / RFU, DIAPH2 / Fold change vs veh, DIAPH2 / RFU, SKA2 / Fold change vs veh, SKA2 / RFU, AFF3 / Fold change vs veh, AFF3 / RFU, LMF1 / Fold change vs veh, LMF1 / RFU, IPO11 / Fold change vs veh, IPO11 / RFU, DFFB / Fold change vs veh, DFFB / RFU, FOXP1 / Fold change vs veh, FOXP1 / RFU, CARD8 / Fold change vs veh, CARD8 / RFU, STRN3 / Fold change vs veh, STRN3 / RFU, ADK / Fold change vs veh, ADK / RFU, RASSF2 / Fold change vs veh, RASSF2 / RFU, WIPF1 / Fold change vs veh, WIPF1 / RFU, LARP1B / Fold change vs veh, LARP1B / RFU, RASA1 / Fold change vs veh, RASA1 / RFU, RB1 / Fold change vs veh, RB1 / RFU, PPFIA1 / Fold change vs veh, PPFIA1 / RFU, MAT2A / Fold change vs veh, MAT2A / RFU, CCT5 / Fold change vs veh, CCT5 / RFU, WDR92 / Fold change vs veh, WDR92 / RFU, CUX1 / Fold change vs veh, CUX1 / RFU, TTC7A / Fold change vs veh, TTC7A / RFU, TMEM135 / Fold change vs veh, TMEM135 / RFU, DEPTOR / Fold change vs veh, DEPTOR / RFU, CPM / Fold change vs veh, CPM / RFU, DNAJB6 / Fold change vs veh, DNAJB6 / RFU, CACNA2D3 / Fold change vs veh, CACNA2D3 / RFU, DTX4 / Fold change vs veh, DTX4 / RFU, TFCP2 / Fold change vs veh, TFCP2 / RFU, GMCL1 /// GMCL1P1 / Fold change vs veh, GMCL1 /// GMCL1P1 / RFU, AEBP2 / Fold change vs veh, AEBP2 / RFU, SNHG1 /// SNORD22 /// SNORD25 /// SNORD26 /// SNORD27 /// SNORD28 /// SNORD29 /// SNORD31 / Fold change vs veh, SNHG1 /// SNORD22 /// SNORD25 /// SNORD26 /// SNORD27 /// SNORD28 /// SNORD29 /// SNORD31 / Fold change (Aza/veh), C12orf56 (ProbeSet 11735607_a_at) / Fold change (ACY-1035/veh), C12orf56 (ProbeSet 11735607_a_at) / Fold change (Aza/veh), FGFR1OP (ProbeSet 11751329_s_at) / Fold change (ACY-1035/veh), FGFR1OP (ProbeSet 11751329_s_at) / Fold change (Aza/veh), VPS36 (ProbeSet 11739960_a_at) / Fold change (ACY-1035/veh), VPS36 (ProbeSet 11739960_a_at) / RFU SYPL1 (11715823_x_at) / Fold change /veh SYPL1 (11715823_x_at) / RFU IGFBP7 (11715501_s_at) / Fold change /veh IGFBP7 (11715501_s_at) / RFU REEP3 (11722064_at) / Fold change /veh REEP3 (11722064_at) / RFU IGLL1 (11728026_x_at) / Fold change /veh IGLL1 (11728026_x_at): dose or concentration left out as unconfirmed
Details: ProbeSet 11729384_s_at; LIST D

Nc1ncn([C@@H]2O[C@H](CO)[C@@H](O)[C@H]2O)c(=O)n1 [azacitidine]
Fold change vs veh, CCNY: 0.82
